Assay results as given in US20250144067A1, “PERSONALIZED STARVATION THERAPY FOR CANCER” (Faeth Therapeutics, Inc., priority 2021, published 2025).
Where a name gives a salt, the structure may show the parent alone.

Key:
[1] = test system: NCI-H292 lung cancer cells; experiment: FDA drug screening, complete media vs cholesterol-free media without statin (TABLE 1); type: cell-based, human
[2] = test system: NCI-H292 lung cancer cells; experiment: FDA drug screening, complete media vs cholesterol-free media with simvastatin (TABLE 2); type: cell-based, human; conditions: for Cholesterol-free media + simvastatin (0.04 μM) / Complete Media: NCI-H292 cells
[3] = Complete minus Cholesterol-free, >0 enhanced anti-cancer activity, about 0 neutral, <0 antagonist
[4] = NCI-H292 cells, cholesterol-free media without statin
[5] = FDA drug library screen, cholesterol-free media with simvastatin 0.04 μM
[6] = FDA drug library screen, complete media
[7] = complete media minus cholesterol-free media + simvastatin, >0 enhanced anti-cancer activity, about 0 neutral, <0 antagonist
[8] = NCI-H292 cells, cholesterol-free media without statin, FDA drug library screen
[9] = NCI-H292 cells, complete media, FDA drug library screen
[10] = complete media vs cholesterol-free media + simvastatin (0.04 μM), >0 enhanced anti-cancer activity, about 0 neutral, <0 antagonist
[11] = FDA library drug in cholesterol-free media with simvastatin 0.04 μM
[12] = FDA library drug in complete media
[13] = cholesterol-free media with simvastatin 0.04 μM, cell growth value in FDA drug screen
[14] = complete media, cell growth value in FDA drug screen
[15] = drug in cholesterol-free media with simvastatin 0.04 μM
[16] = complete media vs cholesterol-free media + simvastatin (0.04 μM), […]
[17] = complete vs cholesterol-free media, >0 enhanced anti-cancer activity, about 0 neutral, <0 antagonist
[18] = cholesterol-free media with simvastatin 0.04 μM, FDA drug library screen (TABLE 2)
[19] = complete media, FDA drug library screen (TABLE 2)
[20] = complete media minus cholesterol-free media + simvastatin (0.04 μM), >0 enhanced anti-cancer activity, about 0 neutral, <0 antagonist
[21] = Complete minus Cholesterol-free, greater than 0 enhanced anti-cancer activity, about 0 neutral, below 0 antagonists
[22] = NCI-H292 cells in cholesterol-free media without statin
[23] = NCI-H292 cells in complete media
[24] = Complete minus Cholesterol-free, greater than 0 enhanced anti-cancer activity, about 0 neutral, below 0 antagonist
[25] = NCI-H292 cells, FDA drug library screen, cholesterol-free media without statin
[26] = NCI-H292 cells, FDA drug library screen, complete media
[27] = complete vs cholesterol-free media, greater than 0 enhanced anti-cancer activity, about 0 neutral, below 0 antagonists
[28] = Complete minus Cholesterol-free, […]

CO[C@H]1O[C@@H]2O[C@@]3(C)CC[C@H]4[C@H](C)CC[C@@H]([C@H]1C)[C@@]24OO3 [Artemether]
Difference [1, 3]: −0.26 | Cholesterol-free [1, 4]: 1.059 | Complete ([1]; NCI-H292 cells, complete media): 0.7961 | Cholesterol-free media + simvastatin (0.04 μM) [2, 5]: 0.6524 | Complete Media [2, 6]: 0.841 | Difference [2, 7]: 0.19

CC(O)(CS(=O)(=O)c1ccc(F)cc1)C(=O)Nc1ccc(C#N)c(C(F)(F)F)c1 (centres unmarked) [Bicalutamide]
Difference [1, 3]: 0.00 | Cholesterol-free [1, 8]: 1.018 | Complete [1, 9]: 1.016 | Cholesterol-free media + simvastatin (0.04 μM) [2, 5]: 1.219 | Complete Media [2, 6]: 1.09 | Difference [2, 10]: −0.13

CCCCOC(=O)c1ccc(N)cc1 [Butamben]
Difference [1, 3]: −0.20 | Cholesterol-free [1, 4]: 1.171 | Complete ([1]; NCI-H292 cells, complete media): 0.9712 | Cholesterol-free media + simvastatin (0.04 μM) [2, 11]: 1.665 | Complete Media [2, 12]: 1.081 | Difference [2, 10]: −0.58

C[C@@H](O)[C@H]1C(=O)N2C(C(=O)O)=C([C@H]3CCCO3)S[C@H]12 [Faropenem sodium]
Difference [1, 3]: −0.02 | Cholesterol-free [1, 8]: 0.8692 | Complete [1, 9]: 0.8522 | Cholesterol-free media + simvastatin (0.04 μM) [2, 13]: 0.9421 | Complete Media [2, 14]: 0.984 | Difference [2, 7]: 0.04

C=CCC(C(=O)NC(N)=O)C(C)C (centres unmarked) [Apronal]
Cholesterol-free [1, 8]: 1.287 | Complete [1, 9]: 1.458 | Difference ([1]; complete vs cholesterol-free media, […]): 0.17 | Cholesterol-free media + simvastatin (0.04 μM) [2, 15]: 1.688 | Complete Media ([2]; drug in complete media): 1.479 | Difference [2, 16]: −0.21

CN1CCc2c(c3ccccc3n2Cc2ccccc2)C1 [Mebhydrolin (napadisylate)]
Cholesterol-free [1, 8]: 1.008 | Complete [1, 9]: 1.238 | Difference [1, 17]: 0.23 | Cholesterol-free media + simvastatin (0.04 μM) [2, 18]: 0.9255 | Complete Media [2, 19]: 0.929 | Difference [2, 20]: 0.00

COc1cc2nc(N3CCN(C(=O)c4ccco4)CC3)nc(N)c2cc1OC [Prazosin (hydrochloride)]
Difference [1, 21]: −0.52 | Cholesterol-free [1, 22]: 1.627 | Complete [1, 23]: 1.105 | Cholesterol-free media + simvastatin (0.04 μM) [2, 5]: 1.23 | Complete Media [2, 6]: 1.079 | Difference [2, 10]: −0.15

Nc1nnc(-c2cccc(Cl)c2Cl)c(N)n1 [Lamotrigine]
Difference [1, 24]: −0.08 | Cholesterol-free [1, 25]: 1.043 | Complete [1, 26]: 0.9644 | Cholesterol-free media + simvastatin (0.04 μM) [2, 11]: 1.437 | Complete Media [2, 12]: 1.093 | Difference [2, 10]: −0.34

CC(C)OC(=O)CNc1cccc(CN(Cc2ccc(-n3cccn3)cc2)S(=O)(=O)c2cccnc2)n1 [Omidenepag isopropyl]
Difference [1, 21]: −0.75 | Cholesterol-free [1, 22]: 1.563 | Complete [1, 23]: 0.8153 | Cholesterol-free media + simvastatin (0.04 μM) [2, 13]: 1.236 | Complete Media [2, 14]: 1.286 | Difference [2, 7]: 0.05

COc1c(C)c2c(c(O)c1C/C=C(\C)CCC(=O)O)C(=O)OC2 [Mycophenolic acid]
Difference [1, 3]: −0.06 | Cholesterol-free [1, 8]: 0.346 | Complete [1, 9]: 0.2837 | Cholesterol-free media + simvastatin (0.04 μM) [2, 15]: 0.743 | Complete Media ([2]; drug in complete media): 0.5199 | Difference [2, 10]: −0.22

COc1cc(N)c(Cl)cc1C(=O)NC1CCN(CCCOc2ccc(F)cc2)CC1OC (centres unmarked) [Cisapride]
Difference [1, 21]: −0.91 | Cholesterol-free [1, 22]: 1.595 | Complete [1, 23]: 0.6865 | Cholesterol-free media + simvastatin (0.04 μM) [2, 5]: 1.001 | Complete Media [2, 6]: 0.8916 | Difference [2, 10]: −0.11

FC(F)(F)c1ccc(CNc2ccc(Cc3c[nH]c4ncc(Cl)cc34)cn2)cn1 [Pexidartinib]
Difference [1, 21]: −0.77 | Cholesterol-free [1, 22]: 1.609 | Complete [1, 23]: 0.8353 | Cholesterol-free media + simvastatin (0.04 μM) [2, 15]: 1.767 | Complete Media ([2]; drug in complete media): 1.579 | Difference [2, 10]: −0.19

Cc1cccn2c(=O)c(-c3nnn[nH]3)cnc12 [Pemirolast (potassium)]
Cholesterol-free [1, 8]: 0.8951 | Complete [1, 9]: 1.011 | Difference [1, 17]: 0.12 | Cholesterol-free media + simvastatin (0.04 μM) [2, 5]: 1.053 | Complete Media [2, 6]: 0.9441 | Difference [2, 10]: −0.11

Cc1cc(-c2ccccc2)nnc1NCCN1CCOCC1 [Minaprine (dihydrochloride)]
Cholesterol-free [1, 4]: 1.341 | Complete ([1]; NCI-H292 cells, complete media): 0.9021 | Difference [1, 27]: −0.44 | Cholesterol-free media + simvastatin (0.04 μM) [2, 5]: 0.8439 | Complete Media [2, 6]: 1.278 | Difference [2, 7]: 0.43

c1ccc([C@H]2CN3CCSC3=N2)cc1 [Levamisole (hydrochloride)]
Cholesterol-free [1, 8]: 1.001 | Complete [1, 9]: 1.665 | Difference [1, 17]: 0.66 | Cholesterol-free media + simvastatin (0.04 μM) [2, 11]: 1.301 | Complete Media [2, 12]: 0.9046 | Difference [2, 10]: −0.40

Clc1ccccc1C(c1ccccc1)(c1ccccc1)n1ccnc1 [Clotrimazole]
Difference [1, 21]: −0.77 | Cholesterol-free [1, 22]: 1.485 | Complete [1, 23]: 0.7188 | Cholesterol-free media + simvastatin (0.04 μM) [2, 5]: 0.4166 | Complete Media [2, 6]: 0.8582 | Difference [2, 7]: 0.44

CC1=C(C(=O)OCCN(Cc2ccccc2)c2ccccc2)C(c2cccc([N+](=O)[O-])c2)C(P2(=O)OCC(C)(C)CO2)=C(C)N1.CCO.Cl (centres unmarked)
Difference [1, 24]: −0.15 | Cholesterol-free [1, 25]: 0.9837 | Complete [1, 26]: 0.8325 | Cholesterol-free media + simvastatin (0.04 μM) [2, 5]: 1.113 | Complete Media [2, 6]: 1.012 | Difference [2, 10]: −0.10

Cl.NCC(=O)CCC(=O)O [5-Aminolevulinic acid (hydrochloride)]
Difference [1, 28]: −0.75 | Cholesterol-free [1, 22]: 1.604 | Complete [1, 23]: 0.8558 | Cholesterol-free media + simvastatin (0.04 μM) [2, 5]: 1.091 | Complete Media [2, 6]: 1.01 | Difference [2, 16]: −0.08

Nc1nc(CC(=O)Nc2ccc(CCNC[C@H](O)c3ccccc3)cc2)cs1 [Mirabegron]
Cholesterol-free [1, 4]: 1.131 | Complete ([1]; NCI-H292 cells, complete media): 0.7731 | Difference [1, 27]: −0.36 | Cholesterol-free media + simvastatin (0.04 μM) [2, 5]: 1.317 | Complete Media [2, 6]: 1.183 | Difference [2, 10]: −0.13

O=C(NC[C@H]1CN(c2ccc(N3CCOCC3=O)cc2)C(=O)O1)c1ccc(Cl)s1 [Rivaroxaban]
Difference [1, 3]: −0.30 | Cholesterol-free [1, 4]: 1.076 | Complete ([1]; NCI-H292 cells, complete media): 0.7773 | Cholesterol-free media + simvastatin (0.04 μM) [2, 5]: 1.199 | Complete Media [2, 6]: 1.057 | Difference [2, 10]: −0.14

O=C(O)C[C@@H]1CC[C@H](NC(=O)Cc2cccs2)B(O)O1 [Vaborbactam]
Difference [1, 3]: 0.06 | Cholesterol-free [1, 8]: 0.9017 | Complete [1, 9]: 0.9648 | Cholesterol-free media + simvastatin (0.04 μM) [2, 18]: 0.8544 | Complete Media [2, 19]: 0.8532 | Difference [2, 20]: 0.00

Gramicidin
Difference [1, 28]: −0.14 | Cholesterol-free [1, 25]: 0.1906 | Complete [1, 26]: 0.04898 | Cholesterol-free media + simvastatin (0.04 μM) [2, 18]: 0.2157 | Complete Media [2, 19]: 0.2144 | Difference ([2]; complete media minus cholesterol-free media + simvastatin (0.04 μM), […]): 0.00

C[C@H](N[C@@H](CCc1ccccc1)C(=O)O)C(=O)N1CCC[C@H]1C(=O)O.O.O [Enalaprilat (dihydrate)]
Difference [1, 21]: −0.58 | Cholesterol-free [1, 22]: 1.525 | Complete [1, 23]: 0.949 | Cholesterol-free media + simvastatin (0.04 μM) [2, 11]: 1.635 | Complete Media [2, 12]: 1.051 | Difference [2, 10]: −0.58

COc1ccc2c(c1)C(=O)N(CCc1ccc(S(=O)(=O)NC(=O)NC3CCCCC3)cc1)C(=O)C2(C)C [Gliquidone]
Difference [1, 21]: −0.68 | Cholesterol-free [1, 22]: 1.724 | Complete [1, 23]: 1.039 | Cholesterol-free media + simvastatin (0.04 μM) [2, 11]: 1.335 | Complete Media [2, 12]: 1.002 | Difference [2, 10]: −0.33

CCN(CC)CC#CCOC(=O)C(O)(c1ccccc1)C1CCCCC1 (centres unmarked) [Oxybutynin (chloride)]
Cholesterol-free [1, 4]: 1.171 | Complete ([1]; NCI-H292 cells, complete media): 0.8317 | Difference [1, 27]: −0.34 | Cholesterol-free media + simvastatin (0.04 μM) [2, 15]: 1.236 | Complete Media ([2]; drug in complete media): 1.034 | Difference [2, 10]: −0.20

CN[C@H]1CC[C@@H](c2ccc(Cl)c(Cl)c2)c2ccccc21 [Sertraline (hydrochloride)]
Difference [1, 24]: −0.11 | Complete [1, 26]: 0.9984 | Cholesterol-free media + simvastatin (0.04 μM) [2, 5]: 0.9083 | Complete Media [2, 6]: 1.2 | Difference [2, 7]: 0.29

CCCN1CCCC[C@H]1C(=O)Nc1c(C)cccc1C [Ropivacaine (hydrochloride)]
Difference [1, 3]: 0.07 | Cholesterol-free [1, 8]: 1.2 | Complete [1, 9]: 1.265 | Cholesterol-free media + simvastatin (0.04 μM) [2, 15]: 1.189 | Complete Media ([2]; drug in complete media): 0.9899 | Difference [2, 10]: −0.20

CC1COc2c(N3CCN(C)CC3)c(F)cc3c(=O)c(C(=O)O)cn1c23 (centres unmarked) [Ofloxacin]
Cholesterol-free [1, 4]: 1.221 | Complete ([1]; NCI-H292 cells, complete media): 0.8562 | Difference [1, 27]: −0.36 | Cholesterol-free media + simvastatin (0.04 μM) [2, 15]: 1.154 | Complete Media ([2]; drug in complete media): 0.9389 | Difference [2, 10]: −0.22

CCCSc1nc(N[C@@H]2C[C@H]2c2ccc(F)c(F)c2)c2nnn([C@@H]3C[C@H](OCCO)[C@@H](O)[C@H]3O)c2n1 [Ticagrelor]
Difference [1, 21]: −0.72 | Cholesterol-free [1, 22]: 1.589 | Complete [1, 23]: 0.8706 | Cholesterol-free media + simvastatin (0.04 μM) [2, 5]: 0.854 | Complete Media [2, 6]: 1.275 | Difference [2, 7]: 0.42
